Key:
[1] = biological target: Epithelial discoidin domain-containing receptor 1 (Homo sapiens, UniProt Q08345); assay: Binding Assays
Procedure: (§1) DDR1 and DDR2 binding assays were performed using Life Technologies LanthaScreen™ Europium Kinase Binding assay. The compounds were incubated with 5 nM DDR1 (Carna Biosciences) or 5 nM DDR2 (Life Technologies) for 1 h at rt in white 384-well OptiPlate (PerkinElmer), containing 20 nM or 10 nM Kinase Tracer 178 respectively and 2 nM Europium labelled anti-GST antibody (Life Technologies) in assay buffer (50 mM HEPES pH 7.5, 10 mM MgCI2, 1 mM EGTA and 0.01% BRIJ35). The ratio of fluorescence emission 665 nm/615 nm after excitation at 340 nm was obtained using the Tecan Spark 20M plate reader. IC50 values were determined in GraphPad Prism 7.0 software, using 4 parameter model: log(inhibitor) vs. response. IC50 values were converted in Ki using the Cheng-Prusoff equation (Ki=IC50/(1+[Tracer]/Kd).

[2] = biological target: T1, Discoidin domain-containing receptor 2 (Homo sapiens, UniProt Q16832); assay: Binding Assays
T1 sequence (Q16832 whole entry): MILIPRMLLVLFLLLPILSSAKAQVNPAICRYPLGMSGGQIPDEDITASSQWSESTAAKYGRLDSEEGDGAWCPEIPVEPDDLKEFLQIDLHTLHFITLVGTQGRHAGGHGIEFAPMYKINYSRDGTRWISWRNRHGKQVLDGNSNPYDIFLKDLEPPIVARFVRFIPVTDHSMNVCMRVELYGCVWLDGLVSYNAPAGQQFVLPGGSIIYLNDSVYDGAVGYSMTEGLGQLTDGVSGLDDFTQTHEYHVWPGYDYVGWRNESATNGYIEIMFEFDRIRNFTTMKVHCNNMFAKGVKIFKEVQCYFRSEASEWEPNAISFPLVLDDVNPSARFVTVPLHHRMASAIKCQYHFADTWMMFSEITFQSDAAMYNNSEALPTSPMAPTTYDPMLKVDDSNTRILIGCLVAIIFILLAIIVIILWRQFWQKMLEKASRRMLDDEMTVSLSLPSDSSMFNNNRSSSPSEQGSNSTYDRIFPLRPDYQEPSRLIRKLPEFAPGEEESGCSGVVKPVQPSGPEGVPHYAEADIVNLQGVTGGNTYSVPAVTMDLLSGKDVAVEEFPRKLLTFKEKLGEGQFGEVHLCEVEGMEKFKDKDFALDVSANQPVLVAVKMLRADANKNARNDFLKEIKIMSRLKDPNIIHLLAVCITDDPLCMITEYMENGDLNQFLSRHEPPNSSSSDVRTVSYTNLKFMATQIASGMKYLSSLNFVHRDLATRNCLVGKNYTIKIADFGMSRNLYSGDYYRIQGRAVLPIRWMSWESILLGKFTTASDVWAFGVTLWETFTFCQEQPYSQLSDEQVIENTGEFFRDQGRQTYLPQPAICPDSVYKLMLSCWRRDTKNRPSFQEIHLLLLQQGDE
Procedure: as §1

Sequence of Epithelial discoidin domain-containing receptor 1 (Q08345 whole entry, the tested form may be a part): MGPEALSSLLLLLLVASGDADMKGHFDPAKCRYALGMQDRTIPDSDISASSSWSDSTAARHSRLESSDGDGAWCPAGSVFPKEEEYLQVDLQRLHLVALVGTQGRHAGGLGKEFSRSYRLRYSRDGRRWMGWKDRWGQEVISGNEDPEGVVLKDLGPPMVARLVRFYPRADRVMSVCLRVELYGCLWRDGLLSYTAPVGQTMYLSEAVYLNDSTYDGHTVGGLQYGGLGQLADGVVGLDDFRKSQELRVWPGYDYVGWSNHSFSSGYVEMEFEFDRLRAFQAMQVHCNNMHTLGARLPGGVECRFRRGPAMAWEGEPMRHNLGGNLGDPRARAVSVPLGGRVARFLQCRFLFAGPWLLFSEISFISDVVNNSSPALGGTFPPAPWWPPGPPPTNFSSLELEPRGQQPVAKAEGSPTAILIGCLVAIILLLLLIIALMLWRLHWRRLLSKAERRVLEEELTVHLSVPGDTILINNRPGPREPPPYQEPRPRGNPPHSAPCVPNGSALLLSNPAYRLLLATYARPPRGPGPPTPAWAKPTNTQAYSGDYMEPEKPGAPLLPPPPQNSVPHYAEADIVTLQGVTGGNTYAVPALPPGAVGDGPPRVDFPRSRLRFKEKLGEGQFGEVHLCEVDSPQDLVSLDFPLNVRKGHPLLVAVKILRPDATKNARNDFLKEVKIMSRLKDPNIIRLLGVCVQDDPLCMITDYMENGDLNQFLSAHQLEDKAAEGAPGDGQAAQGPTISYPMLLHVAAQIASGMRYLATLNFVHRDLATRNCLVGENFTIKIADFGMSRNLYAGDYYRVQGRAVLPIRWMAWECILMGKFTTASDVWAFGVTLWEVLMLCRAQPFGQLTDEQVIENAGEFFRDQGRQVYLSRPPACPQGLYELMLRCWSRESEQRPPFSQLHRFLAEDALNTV

Row | Ki [1] | Ki [2] | SMILES
1 | < 5 nM | – | Cc1ccc(C(=O)Nc2cncc(C(F)(F)F)c2)cc1OC1CN(c2cncc(C(N)=O)c2)C1 [US20260028328, Example 139]
2 | 5 to 25 nM | 25 to 100 nM | Cc1ccc(C(=O)Nc2cncc(C(F)(F)F)c2)cc1SC1CN(c2cncnc2)C1 [US20260028328, Example 177]
